# In patent US10045983B2, “Heteroaryl pyridone and aza-pyrodine compounds” (Genentech, Inc., priority 2011, dated 2018):
# Assay: CD69 Whole Blood Assay (CD69 Hu Blood FACS)
# Assay type: cell-based, human
# Conditions: Lymphocyte; human whole blood, anti-IgM activated B lymphocytes, FACS; IC70; Table 2 (unit inferred); read-out: CD69 Hu Blood FACS (IC70)
# How it was run: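 Human whole blood stimulated by crosslinking surface IgM with goat F(ab′)2 anti-human IgM; inhibition of CD69 expression on B lymphocytes measured by flow cytometry.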
row,SMILES,IC70
1,"COCCN1CCN(c2ccc(Nc3cc(-c4ccnc(N5CCn6c(cc7c6CC(C)(C)C7)C5=O)c4CO)cn(C)c3=O)nc2)CC1 [Example 339, 3-[3-(hydroxymethyl)-4-[5-[[5-[4-(2-methoxyethyl)piperazin-1-yl]-2-pyridyl]amino]-1-methyl-6-oxo-3-pyridyl]-2-pyridyl]-7,7-dimethyl-1,2,6,8-tetrahydrocyclopenta[3,4]pyrrolo[3,5-b]pyrazin-4-one]",53.5 nM
2,"COCCN1CCN(c2ccc(Nc3cc(-c4ccnc(N5CCn6c(cc7c6CC(C)(C)C7)C5=O)c4CO)cn(C)c3=O)nc2)[C@@H](C)C1 [Example 340, 3-[3-(hydroxymethyl)-4-[5-[[5-[(2S)-4-(2-methoxyethyl)-2-methyl-piperazin-1-yl]-2-pyridyl]amino]-1-methyl-6-oxo-3-pyridyl]-2-pyridyl]-7,7-dimethyl-1,2,6,8-tetrahydrocyclopenta[3,4]pyrrolo[3,5-b]pyrazin-4-one]",20.7 nM
